From patent US12612407B2, “Imidazo[2,1-f][1,2,4]triazin-4-amine derivatives as TLR7 agonist” (BEIGENE, LTD., priority 2020, dated 2026)

Molecular target: T1, human TLR7 (Homo sapiens, UniProt Q9NYK1)
T1 construct: host or cells: HEK293 (HEK-Blue hTLR7)
T1 sequence (Q9NYK1 27-1049): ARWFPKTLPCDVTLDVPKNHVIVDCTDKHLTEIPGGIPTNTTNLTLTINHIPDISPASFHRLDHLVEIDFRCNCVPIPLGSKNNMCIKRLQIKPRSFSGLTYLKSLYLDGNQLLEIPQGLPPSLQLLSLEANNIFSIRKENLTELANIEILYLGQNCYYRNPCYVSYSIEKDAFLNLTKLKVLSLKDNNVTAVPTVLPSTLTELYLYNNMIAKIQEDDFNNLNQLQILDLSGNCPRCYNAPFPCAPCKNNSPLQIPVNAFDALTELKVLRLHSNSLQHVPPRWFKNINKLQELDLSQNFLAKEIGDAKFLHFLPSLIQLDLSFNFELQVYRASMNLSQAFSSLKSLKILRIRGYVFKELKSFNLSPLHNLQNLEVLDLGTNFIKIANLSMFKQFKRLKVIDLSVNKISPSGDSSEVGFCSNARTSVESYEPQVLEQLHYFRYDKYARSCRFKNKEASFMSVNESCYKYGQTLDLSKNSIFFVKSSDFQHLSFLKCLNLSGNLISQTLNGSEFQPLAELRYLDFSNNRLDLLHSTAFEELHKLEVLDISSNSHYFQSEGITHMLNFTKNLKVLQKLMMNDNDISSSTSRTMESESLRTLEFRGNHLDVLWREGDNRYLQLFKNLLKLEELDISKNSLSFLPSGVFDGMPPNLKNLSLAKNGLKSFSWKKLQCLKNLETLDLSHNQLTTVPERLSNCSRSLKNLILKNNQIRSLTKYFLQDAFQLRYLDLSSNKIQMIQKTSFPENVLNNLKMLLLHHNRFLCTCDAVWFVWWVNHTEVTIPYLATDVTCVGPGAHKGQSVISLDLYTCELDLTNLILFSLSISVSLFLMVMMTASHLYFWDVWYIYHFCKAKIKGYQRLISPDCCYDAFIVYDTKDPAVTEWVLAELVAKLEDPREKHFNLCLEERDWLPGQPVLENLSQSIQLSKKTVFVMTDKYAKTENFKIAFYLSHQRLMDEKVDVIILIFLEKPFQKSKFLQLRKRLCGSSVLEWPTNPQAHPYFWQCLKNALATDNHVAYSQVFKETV
Assay: HEK293-Blue hTLR7 Reporter Assay (QUANTI-BLUE, SEAP readout)
Assay type: cell-based
Details: HEK-Blue-hTLR7 cells, 24 hrs treatment, Table 1, B1-B232
Method in brief: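 Compound titrations were applied for 24 h at 37° C to reporter HEK293 cells (4×10^4 per well) in which human TLR7 activation drives secreted alkaline phosphatase. Supernatants reacted with Quanti-blue 10-30 min, absorbance read at 620-655 nm, and EC50 derived by sigmoidal curve fitting.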

Row | Molecule | EC50
1 | CCCCOc1nc(N)c2ncc(Cc3ccc(C4CCCNC4)cc3)n2n1 (centres unmarked) [Compound B20, 2-butoxy-7-(4-(piperidin-3-yl)benzyl)imidazo[2,1-f][1,2,4]triazin-4-amine] | 7990 nM
2 | 1-((4-amino-7-((5-methyl-6-(piperazin-1-yl)pyridin-3-yl)methyl)imidazo[2,1-f][1,2,4]triazin-2-yl)oxy)hexan-3-ol [Compound B157] | 667 nM
3 | CCCCOc1nc(N)c2ncc(Cc3ccc(N4CCNCC4)c(CC)c3)n2n1 [Compound B92, 2-butoxy-7-(3-ethyl-4-(piperazin-1-yl)benzyl)imidazo[2,1-f][1,2,4]triazin-4-amine] | 464 nM
4 | CCCCOc1nc(N)c2ncc(Cc3cnc(N4CCC(CN)CC4)c(C)c3)n2n1 [Compound B144, 7-((6-(4-(aminomethyl)piperidin-1-yl)-5-methylpyridin-3-yl)methyl)-2-butoxyimidazo[2,1-f][1,2,4]triazin-4-amine] | > 10000 nM
5 | CCCC(CCC)Nc1nc(N)c2ncc(Cc3cnc(N4CCNCC4)c(C)c3)n2n1 [Compound B191, N2-(heptan-4-yl)-7-((5-methyl-6-(piperazin-1-yl)pyridin-3-yl)methyl)imidazo[2,1-f][1,2,4]triazine-2,4-diamine] | 7.9 nM
6 | CCCCOc1nc(N)c2ncc(Cc3cnc(N4CCNCC4)cc3C)n2n1 [Compound B48, 2-butoxy-7-((4-methyl-6-(piperazin-1-yl)pyridin-3-yl)methyl)imidazo[2,1-f][1,2,4]triazin-4-amine] | 4770 nM
7 | CCCCOc1nc(N)c2ncc(Cc3cnc(N4CCN[C@H](C)C4)c(C)c3)n2n1 [Compound B97, (R)-2-butoxy-7-((5-methyl-6-(3-methylpiperazin-1-yl)pyridin-3-yl)methyl)imidazo[2,1-f][1,2,4]triazin-4-amine] | 163 nM
8 | CCC(C)Oc1nc(N)c2ncc(Cc3cnc(N4CCN(C(=O)CNC)CC4)c(C)c3)n2n1 (centres unmarked) [Compound B156, 1-(4-(5-((4-amino-2-(sec-butoxy)imidazo[2,1-f][1,2,4]triazin-7-yl)methyl)-3-methylpyridin-2-yl)piperazin-1-yl)-2-(methylamino)ethan-1-one] | 9.7 nM
9 | CCCC(CCC)Oc1nc(N)c2ncc(Cc3cnc(N4CCC(CN(C)C)CC4)c(C)c3)n2n1 [Compound B198, 7-((6-(4-((dimethylamino)methyl)piperidin-1-yl)-5-methylpyridin-3-yl)methyl)-2-(heptan-4-yloxy)imidazo[2,1-f][1,2,4]triazin-4-amine] | 4.1 nM
10 | CCCC(CCO)Oc1nc(N)c2ncc(Cc3cnc(N4CCN(C(=O)CN(C)C)CC4)c(C)c3)n2n1 (centres unmarked) [Compound B176, 1-(4-(5-((4-amino-2-((1-hydroxyhexan-3-yl)oxy)imidazo[2,1-f][1,2,4]triazin-7-yl)methyl)-3-methylpyridin-2-yl)piperazin-1-yl)-2-(dimethylamino)ethan-1-one] | 8.6 nM
11 | Cc1cc(Cc2cnc3c(N)nc(OCC4CCOCC4)nn23)cnc1N1CCNCC1 [Compound B194, 7-((5-methyl-6-(piperazin-1-yl)pyridin-3-yl)methyl)-2-((tetrahydro-2H-pyran-4-yl)methoxy)imidazo[2,1-f][1,2,4]triazin-4-amine] | 80 nM
12 | CCCC(C)Oc1nc(N)c2ncc(Cc3cnc(N4CCNCC4)c(C)c3)n2n1 (centres unmarked) [Compound B65, 7-((5-methyl-6-(piperazin-1-yl)pyridin-3-yl)methyl)-2-(pentan-2-yloxy)imidazo[2,1-f][1,2,4]triazin-4-amine] | 26 nM
13 | 2-butoxy-7-((5-(piperidin-4-yl)pyridin-2-yl)methyl)imidazo[2,1-f][1,2,4]triazin-4-amine [Compound B77] | 311 nM
14 | CCCCOc1nc(N)c2ncc(Cc3cnc(N4CCNCC4)c(C(F)(F)F)c3)n2n1 [Compound B10, 2-butoxy-7-((6-(piperazin-1-yl)-5-(trifluoromethyl)pyridin-3-yl)methyl)imidazo[2,1-f][1,2,4]triazin-4-amine] | 417 nM
15 | CCCCNc1nc(N)c2ncc(Cc3cnc(N4CCC(N(C)C)CC4)c(C)c3)n2n1 [Compound B135, N2-butyl-7-((6-(4-(dimethylamino)piperidin-1-yl)-5-methylpyridin-3-yl)methyl)imidazo[2,1-f][1,2,4]triazine-2,4-diamine] | 22 nM
16 | CCC(C)Oc1nc(N)c2ncc(Cc3cnc(N4CCNCC4)c(C)c3)n2n1 (centres unmarked) [Compound B112, 2-(sec-butoxy)-7-((5-methyl-6-(piperazin-1-yl)pyridin-3-yl)methyl)imidazo[2,1-f][1,2,4]triazin-4-amine] | 37 nM
17 | CCCC(CCC)Oc1nc(N)c2ncc(Cc3cnc(N4CCC(N(C)C)CC4)c(C)c3)n2n1 [Compound B186, 7-((6-(4-(dimethylamino)piperidin-1-yl)-5-methylpyridin-3-yl)methyl)-2-(heptan-4-yloxy)imidazo[2,1-f][1,2,4]triazin-4-amine] | 4.9 nM
18 | CCCCOc1nc(N)c2ncc(Cc3cnc(N4CC(N)C4)c(C)c3)n2n1 [Compound B136, 7-((6-(3-aminoazetidin-1-yl)-5-methylpyridin-3-yl)methyl)-2-butoxyimidazo[2,1-f][1,2,4]triazin-4-amine] | 4980 nM
19 | CCCCOc1nc(N)c2ncc(Cc3cnc(N4CCCNCC4)c(C)c3)n2n1 [Compound B39, 7-((6-(1,4-diazepan-1-yl)-5-methylpyridin-3-yl)methyl)-2-butoxyimidazo[2,1-f][1,2,4]triazin-4-amine] | 465 nM
20 | CCCCOc1nc(N)c2ncc(Cc3cnc(N4CCN(C(=O)CN(CC)CC)CC4)c(C)c3)n2n1 [Compound B170, 1-(4-(5-((4-amino-2-butoxyimidazo[2,1-f][1,2,4]triazin-7-yl)methyl)-3-methylpyridin-2-yl)piperazin-1-yl)-2-(diethylamino)ethan-1-one] | 29 nM
21 | CCC[C@H](CC)Oc1nc(N)c2ncc(Cc3cnc(N4CCN(C(=O)CNC)CC4)c(C)c3)n2n1 [Compound B230, (S)-1-(4-(5-((4-amino-2-(hexan-3-yloxy)imidazo[2,1-f][1,2,4]triazin-7-yl)methyl)-3-methylpyridin-2-yl)piperazin-1-yl)-2-(methylamino)ethan-1-one] | 4.8 nM
22 | CCCCOc1nc(N)c2ncc(Cc3ccc(N4CCNCC4)c(C)c3)n2n1 [Compound B36, 2-butoxy-7-(3-methyl-4-(piperazin-1-yl)benzyl)imidazo[2,1-f][1,2,4]triazin-4-amine] | 182 nM
23 | CCCCOc1nc(N)c2ncc(Cc3cnc(N4CCNC[C@H]4C)c(C)c3)n2n1 [Compound B74, (R)-2-butoxy-7-((5-methyl-6-(2-methylpiperazin-1-yl)pyridin-3-yl)methyl)imidazo[2,1-f][1,2,4]triazin-4-amine] | 73 nM
24 | Cc1cc(Cc2cnc3c(N)nc(OCC4CCOC4)nn23)cnc1N1CCNCC1 (centres unmarked) [Compound B193, 7-((5-methyl-6-(piperazin-1-yl)pyridin-3-yl)methyl)-2-((tetrahydrofuran-3-yl)methoxy)imidazo[2,1-f][1,2,4]triazin-4-amine] | 902 nM
25 | CC[C@@H](CCO)Oc1nc(N)c2ncc(Cc3cnc(N4CCNCC4)c(C)c3)n2n1 [Compound B216, (S)-3-((4-amino-7-((5-methyl-6-(piperazin-1-yl)pyridin-3-yl)methyl)imidazo[2,1-f][1,2,4]triazin-2-yl)oxy)pentan-1-ol] | 1080 nM
26 | CCC[C@H](C)Nc1nc(N)c2ncc(Cc3cnc(N4CCC(N(C)C)CC4)c(C)c3)n2n1 (single isomer, unassigned) [Compound B173] | 2.3 nM
27 | C=CC(=O)N1CCN(c2ncc(Cc3cnc4c(N)nc(OCCCC)nn34)cc2C)CC1 [Compound B44, 1-(4-(5-((4-amino-2-butoxyimidazo[2,1-f][1,2,4]triazin-7-yl)methyl)-3-methylpyridin-2-yl)piperazin-1-yl)prop-2-en-1-one] | 6660 nM
28 | Cc1cc(Cc2cnc3c(N)nc(OC4CCCC4)nn23)cnc1N1CCNCC1 [Compound B172, 2-(cyclopentyloxy)-7-((5-methyl-6-(piperazin-1-yl)pyridin-3-yl)methyl)imidazo[2,1-f][1,2,4]triazin-4-amine] | 260 nM
29 | CCC[C@@H](C)Oc1nc(N)c2ncc(Cc3cnc(N4CCN(C(=O)CNC)CC4)c(C)c3)n2n1 [Compound B160, (R)-1-(4-(5-((4-amino-2-(pentan-2-yloxy)imidazo[2,1-f][1,2,4]triazin-7-yl)methyl)-3-methylpyridin-2-yl)piperazin-1-yl)-2-(methylamino)ethan-1-one] | 25 nM
